{"source": "patent US20110136990A1", "about": "“POLYMER DERIVATIVE OF DOCETAXEL, METHOD OF PREPARING THE SAME AND USES THEREOF” (priority 2008, published 2011)", "assay_type_in_all_cases": "in vivo", "key": {"[1]": {"assay": "Changes in body weight of mice bearing PC-3 cells", "conditions": "nude mice bearing PC-3, 15 mg/kg, tail vein every four days, three times", "protocol": "(§1) Using the polymer derivative of docetaxel (PEG-pAsp-14DTX) obtained in Example 1, the following experiment was carried out. PC-3 cells were purchased from ATCC through Summit Pharmaceuticals International Corporation. PC-3 cells were cultured in a RPMI1640+10% FBS medium at 5% CO2 and 37° C., and grown to the cell number required for xenograft. The cells were suspended in physiological saline, and inoculated subcutaneously at the back of the male nude mice [Balb nu/nu, 5 week-old, Charles River Laboratories Japan, Inc.] to 3×10^6 cells/100 μl per mouse. Then, the nude mice were kept for 15 days, and drug administration was started when the tumor volume reached 81.6±5.0 mm^3 (mean±SE, in which SE represents the standard error, the same shall apply hereinafter). […] For the following four groups (n=8), changes in tumor volume and body weight over time were determined: (1) Control group (untreated), (2) 15 mg/kg of a DMSO solution of docetaxel group, (3) 15 mg/kg of PEG-pAsp-14DTX group, and (4) 20 mg/kg of PEG-pAsp-14DTX group (the dosage was the converted amount of docetaxel mg/kg/injection). […] For tumor volume, the major dimension (a mm) and the minor dimension (b mm) were measured with an electronic caliper [Mitsutoyo Corporation], and the volume was calculated according to the following equation."}, "[2]": {"tested_on": "human prostate cancer PC-3 cells", "assay": "Drug efficacy test using human prostate cancer PC-3 cells (tumor volume)", "conditions": "nude mice, PC-3 xenograft, 15 mg/kg, tail vein every four days, three times", "protocol": "as §1, with “equation. […]” for “equation.”"}, "[3]": {"assay": "Pharmacokinetic study in mice (plasma levels of DTX)", "conditions": "male Balb/c mice, tail vein, 10 mg/kg, 5 minutes to 48 hours", "protocol": "Ten mg in terms of DTX of the polymer derivative of docetaxel (PEG-pAsp-14DTX) obtained in Example 1 was precisely weighed into a sample vial, to which 1 ml of purified water was added to suspend the sample. After stirring at 4° C. for a whole day and night, it was sonicated under ice cooling for 10 minutes using a Biodisruptor (Nihon Seiki Seisakusho, High Power Unit), filtered with a 0.22 μm filter [Millipore, Millex (registered trademark) GP PES], and the filtrate was collected. The filtrate was gel-filtered (GE Healthcare Bioscience, PD-10, the elution solution: a 10% sucrose solution), and the collected polymer micelle fraction (the mean particle size 120 nm) was used in the following experiment. […]\nDTX in the polymer-bound form was hydrolyzed to a free form, and total DTX was determined as follows. […] This was loaded in a HPLC sample vial and analyzed by HPLC under the following condition. The content of DTX was calculated based on the ratio of the peak area of DTX relative to the peak area derived from paclitaxel, which was used as the internal standard.\nTo 50 μl of the collected plasma, 20 μl of paclitaxel/50% acetonitrile (20 μg/mL) as the internal standard and 300 μl of ethyl acetate were added in this order, and stirred vigorously for one minute at room temperature. […] This was loaded in a HPLC sample vial and analyzed by HPLC […]"}}}
{"smiles": "CC(=O)O[C@@]12CO[C@@H]1C[C@H](O)[C@@]1(C)C(=O)[C@H](O)C3=C(C)[C@@H](OC(=O)[C@H](O)[C@@H](NC(=O)OC(C)(C)C)c4ccccc4)C[C@@](O)([C@@H](OC(=O)c4ccccc4)[C@H]21)C3(C)C", "note": "[DMSO solution of docetaxel, docetaxel]", "values": [{"measurement": "reduction in body weight", "setting": "[1]", "value": "marked reduction in body weight"}, {"measurement": "tumor growth compared to control group", "setting": "[2]", "value": "tumor growth was markedly suppressed"}]}
{"smiles": "CC(=O)O[C@@]12CO[C@@H]1C[C@H](O)[C@@]1(C)C(=O)[C@H](O)C3=C(C)[C@@H](OC(=O)[C@H](O)[C@@H](NC(=O)OC(C)(C)C)c4ccccc4)C[C@@](O)([C@@H](OC(=O)c4ccccc4)[C@H]21)C3(C)C", "note": "[docetaxel solution, docetaxel]", "values": [{"measurement": "changes in plasma levels with time (docetaxel)", "setting": "[3]", "value": "disappears rapidly"}]}
